Measured values: US5061794A, “Cephalosporin derivatives, and antibacterial agents” (priority 1986, dated 1991)
Where two headings read alike, the source gives them in different places.

Key:
Ps. cepacia 23 = test: in vitro antibacterial activity, agar plate dilution method (MIC); assay type: cell-based, Pseudomonas cepacia; settings: Burkholderia cepacia, 16 h; Ps. cepacia 23; 10^6 CFU/ml; read-out: Minimum Inhibitory Concentration (MIC)
Procedure: (§1) The in vitro antibacterial activities of the compounds of the present invention against various microorganisms, were measured by the following agar plate dilution method. One platinum loopfull of each test microorganism incubated overnight in Mueller Hinton broth, was inoculated to Mueller Hinton agar (inoculum size: 10^6 CFU/ml). Such culture media containing various antibiotics in various concentrations were prepared. After incubation at 37° C. for 16 hours, the minimum inhibitory concentrations (MIC: μg/ml) were measured.

K. pneumoniae PCI-602 = test: as above; assay type: cell-based; settings: Klebsiella pneumoniae, PCI602, 16 h, 10^6 CFU/ml
Procedure: as §1

E. coli GN5482 = test: as above; assay type: cell-based; settings: Escherichia coli, GN5482, 16 h
Procedure: as §1

S. aureus 209P NIHJ-JC1 = test: as above; assay type: cell-based; settings: Staphylococcus aureus, 16 h
Procedure: as §1

P. vulgaris HX-19 = test: as above; assay type: cell-based; settings: Proteus vulgaris, HX19, 16 h, read-out: Minimum Inhibitory Concentration (MIC)
Procedure: as §1

S. marcescens No. 16-2 = test: as above; assay type: cell-based; settings: Serratia marcescens, NO.162, 16 h
Procedure: as §1

K. oxytoca GN10650 = test: as above; assay type: cell-based; settings: Klebsiella oxytoca, GN10650, 16 h, read-out: Minimum Inhibitory Concentration (MIC), *K. oxytoca GN10650, lactamase-producing strain; 10^6 CFU/ml
Procedure: as §1

S. marcescens IAM 1184 = test: as above; assay type: cell-based; settings: Serratia marcescens, IAM1184, 16 h, read-out: Minimum Inhibitory Concentration (MIC)
Procedure: as §1

E. coli NIHJ JC2 = test: as above; assay type: cell-based; settings: Escherichia coli, NIHJJC2, 16 h, read-out: Minimum Inhibitory Concentration (MIC), E. coli NIHJ JC2, 10^6 CFU/ml, 37° C.
Procedure: as §1

E. cloacae Nek 39 = test: as above; assay type: cell-based; settings: Enterobacter cloacae, NEK39, 16 h, 10^6 CFU/ml
Procedure: as §1

E. cloacae 963 = test: as above; assay type: cell-based; settings: 10^6 CFU/ml
Procedure: as §1

K. pneumoniae No. 42 = test: as above; assay type: cell-based; settings: Klebsiella pneumoniae, NO.42, 16 h, read-out: Minimum Inhibitory Concentration (MIC), *K. pneumoniae No. 42, lactamase-producing strain; 10^6 CFU/ml
Procedure: as §1

P. vulgaris No. 33 = test: as above; assay type: cell-based; settings: Proteus vulgaris, NO.33, 16 h, read-out: Minimum Inhibitory Concentration (MIC), *P. vulgaris No. 33, lactamase-producing strain; 10^6 CFU/ml
Procedure: as §1

Ps. aeruginosa IF03445 = test: as above; assay type: cell-based, Pseudomonas aeruginosa; settings: Pseudomonas aeruginosa, 10^6 CFU/ml
Procedure: as §1

Ps. aeruginosa AK 109 = test: as above; assay type: cell-based, Pseudomonas aeruginosa; settings: Pseudomonas aeruginosa, AK109, 16 h, 10^6 CFU/ml
Procedure: as §1

Ps. aeruginosa AKR17 = test: as above; assay type: cell-based, Pseudomonas aeruginosa; settings: Pseudomonas aeruginosa, 10^6 CFU/ml
Procedure: as §1

E. coli CSH(RE45) = test: microbe, parasite or virus in culture; assay type: cell-based; settings: Escherichia coli, 16 h, read-out: Minimum Inhibitory Concentration (MIC), *E. coli CSH(RE45), lactamase-producing strain; 10^6 CFU/ml
Procedure: as §1

E. coli CSH2 (RK1) = test: microbe, parasite or virus in culture; assay type: cell-based; settings: Escherichia coli, 16 h, read-out: Minimum Inhibitory Concentration (MIC), *E. coli CSH2 (RK1), lactamase-producing strain; 10^6 CFU/ml
Procedure: as §1

A. calcoaceticus No. 4 = test: in vitro antibacterial activity, agar plate dilution method (MIC); assay type: cell-based, Acinetobacter calcoaceticus; settings: Acinetobacter calcoaceticus, NO.4, 16 h, 10^6 CFU/ml
Procedure: as §1

M. morganii GN5407 = test: as above; assay type: cell-based; settings: Morganella morganii, GN5407, 16 h, read-out: Minimum Inhibitory Concentration (MIC), *M. morganii GN5407, lactamase-producing strain; 10^6 CFU/ml
Procedure: as §1

[1] = S. marcescens IAM 1184, 10^6 CFU/ml
[2] = read-out: Minimum Inhibitory Concentration (MIC), *E. cloacae Nek 39, lactamase-producing strain
[3] = Enterobacter cloacae, 16 h, E. cloacae 963, read-out: Minimum Inhibitory Concentration (MIC)
[4] = A. calcoaceticus No. 4, read-out: Minimum Inhibitory Concentration (MIC)
[5] = read-out: Minimum Inhibitory Concentration (MIC), K. pneumoniae PCI-602
[6] = read-out: Minimum Inhibitory Concentration (MIC)
[7] = 16 h, Ps. aeruginosa IF03445, read-out: Minimum Inhibitory Concentration (MIC)
[8] = Ps. aeruginosa AK 109, read-out: Minimum Inhibitory Concentration (MIC)
[9] = 16 h, Ps. aeruginosa AKR17, read-out: Minimum Inhibitory Concentration (MIC)

Compound | MIC (Ps. cepacia 23) [µg/mL] | MIC (P. vulgaris HX-19; P. vulgaris HX-19, 10^6 CFU/ml) [µg/mL] | MIC (K. oxytoca GN10650) [µg/mL] | MIC (S. marcescens IAM 1184; [1]) [µg/mL] | MIC (E. coli NIHJ JC2) [µg/mL] | MIC (E. cloacae Nek 39; [2]) [µg/mL] | MIC (E. cloacae 963; [3]) [µg/mL] | MIC (K. pneumoniae No. 42) [µg/mL] | MIC (P. vulgaris No. 33) [µg/mL] | MIC (E. coli CSH(RE45)) [µg/mL] | MIC (E. coli CSH2 (RK1)) [µg/mL] | MIC (A. calcoaceticus No. 4; [4]) [µg/mL] | MIC (K. pneumoniae PCI-602; [5]) [µg/mL] | MIC (E. coli GN5482; [6]) [µg/mL] | MIC (Ps. aeruginosa IF03445; [7]) [µg/mL] | MIC (Ps. aeruginosa AK 109; [8]) [µg/mL] | MIC (Ps. aeruginosa AKR17; [9]) [µg/mL] | also measured
CC(=O)Oc1ccc(-c2nc(SCC3=C(C(=O)O)N4C(=O)C(NC(=O)C(=NOC(C)(C)C(=O)O)c5csc(N)n5)C4SC3)sc2CC(=O)O)cc1OC(C)=O (stereo not drawn) [Example 59 (II), trisodium 7β-[2-(2-aminothiazol-4-yl)-2-(1-carboxylate-1-methylethoxyimino)acetamido]-3-[4-(3,4-diacetoxyphenyl)-5-carboxylatemethylthiazol-2-yl]-thiomethyl-3-cephem-4-carboxylate] | < 0.006 | 0.025 | 0.2 | 0.2 | 3.12 | 0.2 | 0.2 | 0.2 | 0.05 | 0.05 | 0.025 | 0.2 |  |  |  |  |  | MIC (K. pneumoniae PCI-602; K. pneumoniae PCI-602, read-out: Minimum Inhibitory Concentration (MIC)): 0.025 µg/mL; MIC (E. coli GN5482; read-out: Minimum Inhibitory Concentration (MIC), *E. coli GN5482, lactamase-producing strain, 10^6 CFU/ml): 1.56 µg/mL; MIC (S. aureus 209P NIHJ-JC1; S. aureus 209P NIHJ-JC1, 10^6 CFU/ml, 37° C., 16 hours, read-out: Minimum Inhibitory Concentration (MIC)): 50 µg/mL; MIC (S. marcescens No. 16-2; read-out: Minimum Inhibitory Concentration (MIC), *S. marcescens No. 16-2, lactamase-producing strain, 10^6 CFU/ml): 0.78 µg/mL; MIC (Ps. aeruginosa IF03445; IF03445, 16 h, read-out: Minimum Inhibitory Concentration (MIC), Ps. aeruginosa IF03445): 1.56 µg/mL; MIC (Ps. aeruginosa AK 109; read-out: Minimum Inhibitory Concentration (MIC), Ps. aeruginosa AK 109): 1.56 µg/mL; MIC (Ps. aeruginosa AKR17; AKR17, 16 h, read-out: Minimum Inhibitory Concentration (MIC), Ps. aeruginosa AKR17): 1.56 µg/mL
CC(C)(O/N=C(\C(=O)N[C@@H]1C(=O)N2C(C(=O)O)=C(CSc3nnc(-c4ccccc4)o3)CS[C@H]12)c1csc(N)n1)C(=O)O [compound 3, disodium 7β-[2-(2-aminothiazol-4-yl)-2-(1-carboxylate-1-methylethoxyimino)acetamido]3-(5-phenyl-1,3,4-oxadiazol-2-yl) thiomethyl-3-cephem-4-carboxylate, reference compound] |  | < 0.006 | 3.12 |  | 3.12 |  |  | 3.12 | 0.39 | 1.56 | 1.56 | 100 | 0.1 | 3.12 | 50 | 50 | > 100 | MIC (S. aureus 209P NIHJ-JC1; read-out: Minimum Inhibitory Concentration (MIC), S. aureus 209P NIHJ-JC1, 10^6 CFU/ml, 37° C., 16 hours): 6.25 µg/mL; MIC (M. morganii GN5407): 1.56 µg/mL; MIC (S. marcescens No. 16-2; *S. marcescens No. 16-2, lactamase-producing strain, 10^6 CFU/ml, read-out: Minimum Inhibitory Concentration (MIC)): 25 µg/mL; MIC (S. marcescens IAM 1184): 1.56 µg/mL; MIC (E. cloacae Nek 39; *E. cloacae Nek 39, lactamase-producing strain, read-out: Minimum Inhibitory Concentration (MIC)): 25 µg/mL; MIC (E. cloacae 963; Enterobacter cloacae, 963, 16 h, read-out: Minimum Inhibitory Concentration (MIC), E. cloacae 963): 6.25 µg/mL
CON=C(C(=O)NC1C(=O)N2C(C(=O)O)=C(CSc3nc(-c4ccc(O)c(O)c4)c(CC(=O)O)s3)CSC12)c1csc(N)n1 (stereo not drawn) [compound 58, disodium 7β-[2-(2-aminothiazol-4-yl)-2-methoxyiminoacetamido]-3-[4-(3,4-dihydroxyphenyl)-5-carboxylatemethylthiazol-2-yl]thiomethyl-3-cephem-4-carboxylate] | 0.025 |  | 12.5 | 0.1 | 0.39 | 1.56 | 0.1 | 0.1 | 0.025 | 0.39 | 0.0125 |  | < 0.006 | 3.12 | 25 | > 100 | > 100 | MIC (S. aureus 209P NIHJ-JC1; [6]): 12.5 µg/mL; MIC (P. vulgaris HX-19): 0.0125 µg/mL; MIC (S. marcescens No. 16-2; [6]): 3.12 µg/mL; MIC (A. calcoaceticus No. 4; read-out: Minimum Inhibitory Concentration (MIC), A. calcoaceticus No. 4): 0.39 µg/mL
